Test results: ChEMBL document CHEMBL1158459, “Discovery of a peroxisome proliferator activated receptor gamma (PPARgamma) modulator with balanced PPARalpha activity for the treatment of type 2 diabetes and dyslipidemia” (J Med Chem, 2009)
pEC50, pIC50: −log10 of the molar value. Calls of active or inactive are those of the source. The rule behind the calls is not given here.

Tests used:
[1] = target: Oxysterols receptor LXR-beta (Homo sapiens) (UniProt P55055); experiment: Binding affinity to LXRbeta up to 10 uM
Cytochrome P450 1A2 = Cytochrome P450 1A2 (Homo sapiens, UniProt P05177); experiment: Inhibition of CYP1A2; assay type: ADME
[2] = target: T1, Peroxisome proliferator-activated receptor alpha (Mus musculus, UniProt P23204); experiment: Agonist activity at mouse PPARalpha receptor expressed in african green monkey COS1 cells co-transfected with fused yeast Gal4-DBD by transactivation assay; assay type: functional, cell-based, COS-1
T1 sequence (P23204 whole entry): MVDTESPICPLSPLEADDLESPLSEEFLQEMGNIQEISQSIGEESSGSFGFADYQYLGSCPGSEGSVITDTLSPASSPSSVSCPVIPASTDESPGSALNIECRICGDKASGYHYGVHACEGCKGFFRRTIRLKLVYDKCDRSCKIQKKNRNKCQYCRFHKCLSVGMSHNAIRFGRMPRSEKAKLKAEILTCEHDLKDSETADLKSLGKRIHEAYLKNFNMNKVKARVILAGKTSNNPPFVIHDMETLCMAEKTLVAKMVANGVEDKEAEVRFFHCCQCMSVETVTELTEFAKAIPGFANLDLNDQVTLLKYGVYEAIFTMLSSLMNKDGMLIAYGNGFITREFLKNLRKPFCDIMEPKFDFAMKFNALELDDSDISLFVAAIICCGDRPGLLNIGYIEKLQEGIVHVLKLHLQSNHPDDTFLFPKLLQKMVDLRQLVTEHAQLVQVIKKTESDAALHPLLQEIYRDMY

Mus musculus [3] = experiment: Antidiabetic activity in ob/ob mouse assessed as insulin correction at 3 mg/kg, po once daily for 5 days relative to control; assay type: functional
Rattus norvegicus [4] = experiment: Antidiabetic activity in Zucker fa/fa rat assessed as decrease in free fatty acid levels at 0.03 mg/kg, po once daily for 7 days; assay type: functional, organism-based; set-up: dose 0.03 mg/kg
Rattus norvegicus [5] = experiment: Toxicity in Sprague-Dawley rat assessed as hematocrit at 60 mg/kg, po once daily for 14 days; assay type: organism-based; set-up: dose 60 mg/kg, route oral; conditions: in vivo, 336 h
Syrian golden hamster [6] = experiment: Antidiabetic activity in Syrian golden hamster assessed as reduction in triglyceride level at 1 mg/kg, po once daily for 9 days relative to control; assay type: functional, Mesocricetus auratus; set-up: scale not given: the % may be the effect or the level left
Syrian golden hamster [7] = experiment: Antidiabetic activity in Syrian golden hamster assessed as reduction in triglyceride level at 3 mg/kg, po once daily for 9 days relative to control; assay type: functional, Mesocricetus auratus; set-up: scale not given: the % may be the effect or the level left
[8] = target: Peroxisome proliferator-activated receptor alpha (Canis lupus familiaris, UniProt Q95N78); experiment: Agonist activity at dog PPARalpha receptor; assay type: functional
Syrian golden hamster [9] = experiment: Antidiabetic activity in Syrian golden hamster assessed as reduction in cholesterol level at 3 mg/kg, po once daily for 9 days relative to control; assay type: functional, Mesocricetus auratus; set-up: scale not given: the % may be the effect or the level left
[10] = target: Estrogen receptor (Homo sapiens) (UniProt P03372); experiment: Activity at ERalpha receptor up to 10 uM by transactivation assay
Rattus norvegicus [11] = experiment: Antidiabetic activity in Zucker fa/fa rat assessed as decrease in triglyceride levels at 3 mg/kg, po once daily for 7 days; assay type: functional, organism-based; set-up: dose 3 mg/kg
[12] = target: Glucocorticoid receptor (Homo sapiens) (UniProt P04150); experiment: Activity at GR receptor up to 10 uM by transactivation assay
[13] = AUC in high fat diet-fed streptozotocin-treated mouse at 5 mg/kg, po once daily for 12 days; assay type: ADME, organism-based; set-up: dose 5 mg/kg, route oral; conditions: plasma
Rattus norvegicus [14] = experiment: Antidiabetic activity in Zucker fa/fa rat assessed as decrease in free fatty acid levels at 100 mg/kg, po once daily for 7 days; assay type: functional, organism-based; set-up: dose 100 mg/kg
[15] = target: Thyroid hormone receptor alpha (Homo sapiens) (UniProt P10827); experiment: Activity at TRalpha receptor up to 10 uM by transactivation assay
Syrian golden hamster [16] = experiment: Antidiabetic activity in Syrian golden hamster assessed as reduction in cholesterol level at 0.3 mg/kg, po once daily for 9 days relative to control; assay type: functional, Mesocricetus auratus; set-up: scale not given: the % may be the effect or the level left
[17] = AUC in C57BLKS/J-m+/+Leprdb db/db mouse at 1 mg/kg, po once daily for 11 days; assay type: ADME, organism-based; set-up: dose 1 mg/kg, route oral; conditions: plasma
[18] = target: Oxysterols receptor LXR-alpha (Homo sapiens) (UniProt Q13133); experiment: Activity at LXRalpha receptor up to 10 uM by transactivation assay
[19] = AUC in C57BLKS/J-m+/+Leprdb db/db mouse at 10 mg/kg, po once daily for 11 days; assay type: ADME, organism-based; set-up: dose 10 mg/kg, route oral; conditions: plasma
[20] = AUC in rat at 2 mg/kg, po; assay type: ADME, organism-based, Plasma; set-up: dose 2 mg/kg, route oral; conditions: plasma
Mus musculus [21] = experiment: Antidiabetic activity in ob/ob mouse assessed as reduction in plasma glucose levels at 3 mg/kg, po once daily for 5 days relative to control; assay type: functional; set-up: scale not given: the % may be the effect or the level left
Rattus norvegicus [22] = experiment: Antidiabetic activity in Zucker fa/fa rat assessed as decrease in triglyceride levels at 0.3 mg/kg, po once daily for 7 days; assay type: functional, organism-based; set-up: dose 0.3 mg/kg
Rattus norvegicus [23] = experiment: Toxicity in Sprague-Dawley rat assessed as increase bilirubin levels at 60 mg/kg, po once daily for 14 days; assay type: organism-based; set-up: dose 60 mg/kg, route oral; conditions: in vivo, 336 h
Cytochrome P450 2C9 = Cytochrome P450 2C9 (Homo sapiens, UniProt P11712); experiment: Inhibition of CYP2C9; assay type: ADME
[24] = Cmax in Syrian golden hamster at 1 mg/kg, po once daily for 9 days; assay type: ADME, organism-based, Mesocricetus auratus; set-up: dose 1 mg/kg, route oral; conditions: in vivo
Rattus norvegicus [25] = experiment: Toxicity in Zucker fa/fa rat assessed as increase in plasma volume at 15 mg/kg, po treated once daily for 7 days; assay type: organism-based; set-up: dose 15 mg/kg, route oral; conditions: in vivo, 168 h
[26] = target: Estrogen receptor beta (Homo sapiens) (UniProt Q92731); experiment: Activity at ERbeta receptor up to 10 uM by transactivation assay
[27] = target: Estrogen receptor (Homo sapiens) (UniProt P03372); experiment: Binding affinity to ERalpha up to 10 uM
Rattus norvegicus [28] = experiment: Toxicity in Zucker fa/fa rat assessed as increase in heart weight at 10 mg/kg, po treated once daily for 7 days; assay type: organism-based; set-up: dose 10 mg/kg, route oral; conditions: in vivo, 168 h
Mus musculus [29] = experiment: Antidiabetic activity in ob/ob mouse assessed as reduction in plasma glucose levels at 10 mg/kg, po once daily for 5 days relative to control; assay type: functional; set-up: scale not given: the % may be the effect or the level left
[30] = AUC in high fat diet-fed streptozotocin-treated mouse at 30 mg/kg, po once daily for 12 days; assay type: ADME, organism-based; set-up: dose 30 mg/kg, route oral; conditions: plasma
Rattus norvegicus [31] = experiment: Antidiabetic activity in po dosed Zucker fa/fa rat assessed as insulin lowering activity treated once daily for 7 days; assay type: functional
Rattus norvegicus [32] = experiment: Toxicity in Sprague-Dawley rat assessed as increase in heart weight at 60 mg/kg, po once daily for 14 days; assay type: organism-based; set-up: dose 60 mg/kg, route oral; conditions: in vivo, 336 h
Rattus norvegicus [33] = experiment: Antidiabetic activity in Zucker fa/fa rat assessed as decrease in triglyceride levels at 15 mg/kg, po once daily for 7 days; assay type: functional, organism-based; set-up: dose 15 mg/kg
Cytochrome P450 2C19 = Cytochrome P450 2C19 (Homo sapiens, UniProt P33261); experiment: Inhibition of CYP2C19; assay type: ADME
[34] = target: Glucocorticoid receptor (Homo sapiens) (UniProt P04150); experiment: Binding affinity to GR up to 10 uM
Canis familiaris = experiment: Antidiabetic activity in Beagle dog assessed as reduction in total cholesterol level at 3 mg/kg, po once daily for 14 days relative to control; assay type: functional, Canis lupus familiaris; set-up: scale not given: the % may be the effect or the level left

Sequence of Glucocorticoid receptor (Homo sapiens) (P04150 whole entry): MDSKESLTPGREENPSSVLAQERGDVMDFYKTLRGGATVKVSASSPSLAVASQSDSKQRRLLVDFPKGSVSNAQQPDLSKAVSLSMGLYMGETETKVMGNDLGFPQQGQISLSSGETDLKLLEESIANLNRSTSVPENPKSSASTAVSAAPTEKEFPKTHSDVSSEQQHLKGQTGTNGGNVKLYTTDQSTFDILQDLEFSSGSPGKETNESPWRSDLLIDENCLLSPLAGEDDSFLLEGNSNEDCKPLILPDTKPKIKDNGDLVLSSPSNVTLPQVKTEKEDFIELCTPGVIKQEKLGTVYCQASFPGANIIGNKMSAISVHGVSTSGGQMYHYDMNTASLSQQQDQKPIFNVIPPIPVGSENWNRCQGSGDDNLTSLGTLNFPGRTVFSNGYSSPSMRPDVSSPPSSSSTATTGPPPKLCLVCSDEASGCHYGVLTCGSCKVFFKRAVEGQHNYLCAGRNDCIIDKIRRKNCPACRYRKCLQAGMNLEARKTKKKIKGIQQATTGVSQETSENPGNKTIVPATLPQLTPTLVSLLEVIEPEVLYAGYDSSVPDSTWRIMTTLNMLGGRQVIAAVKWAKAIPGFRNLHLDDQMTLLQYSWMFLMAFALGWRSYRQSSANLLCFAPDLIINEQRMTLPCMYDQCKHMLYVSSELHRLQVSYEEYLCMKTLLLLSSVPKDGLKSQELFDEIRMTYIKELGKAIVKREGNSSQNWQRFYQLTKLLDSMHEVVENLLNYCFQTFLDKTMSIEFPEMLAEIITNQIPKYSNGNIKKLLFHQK
Sequence of Estrogen receptor (Homo sapiens) (P03372 whole entry): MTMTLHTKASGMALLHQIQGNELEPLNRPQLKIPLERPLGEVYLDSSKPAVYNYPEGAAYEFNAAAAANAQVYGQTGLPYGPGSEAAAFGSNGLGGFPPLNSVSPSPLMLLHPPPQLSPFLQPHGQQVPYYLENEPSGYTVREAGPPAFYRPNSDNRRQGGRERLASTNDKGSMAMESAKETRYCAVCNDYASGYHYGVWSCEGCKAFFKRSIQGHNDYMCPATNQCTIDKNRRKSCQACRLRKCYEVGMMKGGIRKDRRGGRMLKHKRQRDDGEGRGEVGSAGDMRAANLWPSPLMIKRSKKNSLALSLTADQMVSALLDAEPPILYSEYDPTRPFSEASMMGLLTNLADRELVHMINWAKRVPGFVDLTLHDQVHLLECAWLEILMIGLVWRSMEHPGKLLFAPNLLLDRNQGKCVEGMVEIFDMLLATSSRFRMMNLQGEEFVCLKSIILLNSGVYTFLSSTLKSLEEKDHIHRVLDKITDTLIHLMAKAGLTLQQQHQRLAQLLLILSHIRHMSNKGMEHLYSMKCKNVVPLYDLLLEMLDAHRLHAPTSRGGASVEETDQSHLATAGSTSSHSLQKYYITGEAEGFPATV
Sequence of Estrogen receptor beta (Homo sapiens) (Q92731 whole entry): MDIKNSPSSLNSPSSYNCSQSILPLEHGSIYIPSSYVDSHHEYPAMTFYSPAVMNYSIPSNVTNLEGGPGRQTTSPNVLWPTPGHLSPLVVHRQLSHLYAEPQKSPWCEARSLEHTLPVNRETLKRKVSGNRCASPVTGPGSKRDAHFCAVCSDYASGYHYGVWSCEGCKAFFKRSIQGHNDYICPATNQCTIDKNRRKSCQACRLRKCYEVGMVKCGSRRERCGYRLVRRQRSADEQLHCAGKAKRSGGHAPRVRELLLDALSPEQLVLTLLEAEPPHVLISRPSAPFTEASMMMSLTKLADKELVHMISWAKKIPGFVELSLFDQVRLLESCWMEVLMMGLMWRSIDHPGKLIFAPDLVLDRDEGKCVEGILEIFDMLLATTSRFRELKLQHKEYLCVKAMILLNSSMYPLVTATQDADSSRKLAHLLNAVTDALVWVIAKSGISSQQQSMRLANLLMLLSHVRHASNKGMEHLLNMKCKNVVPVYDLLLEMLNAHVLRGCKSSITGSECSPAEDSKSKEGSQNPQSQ
Sequence of Peroxisome proliferator-activated receptor alpha (Canis lupus familiaris, UniProt Q95N78) (Q95N78 whole entry): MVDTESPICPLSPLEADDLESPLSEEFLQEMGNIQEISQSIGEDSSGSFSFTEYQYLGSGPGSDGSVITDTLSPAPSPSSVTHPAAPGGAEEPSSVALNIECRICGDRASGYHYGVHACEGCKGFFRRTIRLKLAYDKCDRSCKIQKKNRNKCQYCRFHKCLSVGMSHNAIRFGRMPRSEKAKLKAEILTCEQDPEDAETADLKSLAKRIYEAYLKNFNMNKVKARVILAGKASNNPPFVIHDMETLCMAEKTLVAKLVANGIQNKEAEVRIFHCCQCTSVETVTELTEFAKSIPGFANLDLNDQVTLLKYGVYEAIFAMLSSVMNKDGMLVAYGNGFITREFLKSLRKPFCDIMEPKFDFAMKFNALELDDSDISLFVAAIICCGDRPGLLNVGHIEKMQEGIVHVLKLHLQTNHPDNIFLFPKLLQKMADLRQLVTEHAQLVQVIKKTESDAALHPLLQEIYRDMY
Sequence of Cytochrome P450 2C9 (P11712 whole entry): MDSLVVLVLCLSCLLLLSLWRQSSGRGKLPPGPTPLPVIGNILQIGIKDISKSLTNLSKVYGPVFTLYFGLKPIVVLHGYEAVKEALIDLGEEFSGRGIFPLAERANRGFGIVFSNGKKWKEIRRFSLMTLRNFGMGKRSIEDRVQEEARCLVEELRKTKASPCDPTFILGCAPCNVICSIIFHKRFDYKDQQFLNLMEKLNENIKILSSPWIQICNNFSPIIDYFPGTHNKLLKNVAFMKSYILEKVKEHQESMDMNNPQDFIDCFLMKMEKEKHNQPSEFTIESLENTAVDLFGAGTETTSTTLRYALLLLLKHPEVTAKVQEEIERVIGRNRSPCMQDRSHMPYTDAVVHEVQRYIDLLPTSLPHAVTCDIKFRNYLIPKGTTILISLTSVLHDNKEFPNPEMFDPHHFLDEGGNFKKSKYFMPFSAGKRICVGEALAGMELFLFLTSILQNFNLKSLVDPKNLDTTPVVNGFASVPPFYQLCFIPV
Sequence of Cytochrome P450 2C19 (P33261 whole entry): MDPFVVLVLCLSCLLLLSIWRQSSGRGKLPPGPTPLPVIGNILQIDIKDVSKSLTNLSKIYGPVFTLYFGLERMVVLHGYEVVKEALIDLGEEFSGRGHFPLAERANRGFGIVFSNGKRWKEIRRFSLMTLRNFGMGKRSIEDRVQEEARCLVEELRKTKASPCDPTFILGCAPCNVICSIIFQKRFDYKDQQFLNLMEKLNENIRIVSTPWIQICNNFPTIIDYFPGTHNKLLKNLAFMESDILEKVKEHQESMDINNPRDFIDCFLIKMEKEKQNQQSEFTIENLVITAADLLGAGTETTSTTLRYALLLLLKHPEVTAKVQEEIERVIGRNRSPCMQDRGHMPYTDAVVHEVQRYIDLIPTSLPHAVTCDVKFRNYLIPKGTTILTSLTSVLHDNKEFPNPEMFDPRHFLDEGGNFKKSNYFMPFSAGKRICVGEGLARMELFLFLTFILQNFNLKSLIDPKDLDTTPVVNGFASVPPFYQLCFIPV
Sequence of Oxysterols receptor LXR-alpha (Homo sapiens) (Q13133 whole entry): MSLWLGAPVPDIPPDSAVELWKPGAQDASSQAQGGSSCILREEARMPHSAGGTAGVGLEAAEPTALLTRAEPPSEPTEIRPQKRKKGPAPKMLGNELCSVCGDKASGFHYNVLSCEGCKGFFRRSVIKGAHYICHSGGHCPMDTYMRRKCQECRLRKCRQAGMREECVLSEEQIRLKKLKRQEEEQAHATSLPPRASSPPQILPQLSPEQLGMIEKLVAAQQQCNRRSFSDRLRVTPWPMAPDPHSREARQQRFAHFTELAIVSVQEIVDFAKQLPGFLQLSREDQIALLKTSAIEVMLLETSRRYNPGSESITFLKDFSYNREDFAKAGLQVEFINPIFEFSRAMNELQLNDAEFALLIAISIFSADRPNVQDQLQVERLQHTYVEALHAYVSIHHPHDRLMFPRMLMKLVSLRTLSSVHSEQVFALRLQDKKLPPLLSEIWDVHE
Sequence of Cytochrome P450 1A2 (P05177 whole entry, the tested form may be a part): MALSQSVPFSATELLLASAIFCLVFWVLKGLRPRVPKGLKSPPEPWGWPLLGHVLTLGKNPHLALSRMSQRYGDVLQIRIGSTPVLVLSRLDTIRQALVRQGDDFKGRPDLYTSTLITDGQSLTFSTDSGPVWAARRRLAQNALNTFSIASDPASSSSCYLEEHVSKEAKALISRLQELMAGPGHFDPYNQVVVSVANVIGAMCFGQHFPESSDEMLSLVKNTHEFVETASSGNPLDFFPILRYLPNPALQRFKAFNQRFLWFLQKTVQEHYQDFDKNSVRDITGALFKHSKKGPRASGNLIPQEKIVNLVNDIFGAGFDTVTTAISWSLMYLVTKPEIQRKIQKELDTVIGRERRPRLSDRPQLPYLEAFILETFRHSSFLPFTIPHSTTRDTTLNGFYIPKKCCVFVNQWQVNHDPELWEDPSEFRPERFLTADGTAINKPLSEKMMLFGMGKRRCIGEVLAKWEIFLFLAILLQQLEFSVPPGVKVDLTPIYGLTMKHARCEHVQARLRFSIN
Sequence of Thyroid hormone receptor alpha (Homo sapiens) (P10827 whole entry): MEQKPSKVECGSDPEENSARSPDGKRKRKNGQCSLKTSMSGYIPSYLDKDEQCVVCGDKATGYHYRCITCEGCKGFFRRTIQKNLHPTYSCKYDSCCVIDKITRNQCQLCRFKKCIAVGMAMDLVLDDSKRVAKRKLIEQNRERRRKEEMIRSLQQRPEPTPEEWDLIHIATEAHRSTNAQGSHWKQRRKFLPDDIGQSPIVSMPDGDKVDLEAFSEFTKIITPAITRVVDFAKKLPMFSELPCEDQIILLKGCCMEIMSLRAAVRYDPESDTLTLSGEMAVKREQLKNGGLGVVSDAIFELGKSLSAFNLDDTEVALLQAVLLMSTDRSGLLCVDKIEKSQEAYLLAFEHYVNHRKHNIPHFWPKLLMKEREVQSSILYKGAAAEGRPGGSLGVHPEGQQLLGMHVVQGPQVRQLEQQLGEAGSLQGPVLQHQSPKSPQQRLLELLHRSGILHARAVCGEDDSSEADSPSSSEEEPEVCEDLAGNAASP

CC[C@@H](Oc1cccc(Cn2c(C)c(C(=O)c3ccc(Cl)cc3)c3ccc(OC(F)(F)F)cc32)c1)C(=O)O
Activity [1]: inactive
pIC50 (Cytochrome P450 1A2): 4.40
pEC50 [2]: 6.92
Activity (Mus musculus [3]): 67%
Activity (Rattus norvegicus [4]): Active
Activity (Rattus norvegicus [5]): -8%
Activity (Syrian golden hamster [6]): 30.7%
Activity (Syrian golden hamster [7]): 56.9%
pEC50 [8]: 9.26
Activity (Syrian golden hamster [9]): 51.4%
Activity [10]: inactive
Activity (Rattus norvegicus [11]): Active
Activity [12]: inactive
AUC at 288 h [13]: 2700 nM·h
Activity (Rattus norvegicus [14]): Active
Activity [15]: inactive
Activity (Syrian golden hamster [16]): 21.9%
AUC at 264 h [17]: 1900 nM·h
Activity [18]: inactive
AUC at 264 h [19]: 9600 nM·h
AUC [20]: 1500 nM·h
Activity (Mus musculus [21]): 21%
Activity (Rattus norvegicus [22]): Active
Activity (Rattus norvegicus [23]): 48%
pIC50 (Cytochrome P450 2C9): 5.00
Cmax [24]: 0.07 µM
Activity (Rattus norvegicus [25]): Non-toxic
Activity [26]: inactive
Activity [27]: inactive
Activity (Rattus norvegicus [28]): Toxic
Activity (Mus musculus [29]): 34%
AUC at 288 h [30]: 8200 nM·h
ED50 (Rattus norvegicus [31]): 10 µM·h
Activity (Rattus norvegicus [32]): 1%
Activity (Rattus norvegicus [33]): Active
pIC50 (Cytochrome P450 2C19): 4.04
Activity [34]: inactive
Activity (Canis familiaris): 26%
